Source: patent publication US20240368135A1 (VERTEX PHARMACEUTICALS INCORPORATED, priority 2021, published 2024)
pIC50: −log10 of the molar value. Read-outs that look alike come from different tables or passages of the source.

Molecular target: human NaV 1.8 (Homo sapiens, UniProt Q9Y5Y9)
Assay: E-VIPR assay detecting and measuring NaV inhibition properties
Assay type: cell-based
Details: HEK cells expressing truncated human NaV 1.8
In short: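 HEK cells expressing truncated, fully active human NaV1.8, with KIR2.1 BacMam co-transduction, were loaded with CC2-DMPE/DiSBAC6(3) voltage-sensing dyes for 20 min at room temperature. Compounds were tested in 11-point 3-fold dilutions (300 nM top final), optionally with 25% human serum, under electrical stimulation with FRET read-out.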

[1] = no human serum, read-out: IC50 in the E-VIPR Assay
[2] = in the presence of human serum (compound numbers followed by *), read-out: IC50 in the E-VIPR Assay, performed in the presence of human serum

human NaV 1.8, sequence (Q9Y5Y9 126-399 limits assumed): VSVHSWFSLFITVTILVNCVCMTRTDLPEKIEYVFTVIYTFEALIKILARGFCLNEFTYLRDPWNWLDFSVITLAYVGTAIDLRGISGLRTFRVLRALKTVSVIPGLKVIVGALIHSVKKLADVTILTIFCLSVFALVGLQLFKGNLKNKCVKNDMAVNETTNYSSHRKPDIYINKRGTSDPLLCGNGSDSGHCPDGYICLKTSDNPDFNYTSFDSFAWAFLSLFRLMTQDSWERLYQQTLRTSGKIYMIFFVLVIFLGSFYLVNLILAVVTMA
human NaV 1.8, sequence (Q9Y5Y9 660-890 limits assumed): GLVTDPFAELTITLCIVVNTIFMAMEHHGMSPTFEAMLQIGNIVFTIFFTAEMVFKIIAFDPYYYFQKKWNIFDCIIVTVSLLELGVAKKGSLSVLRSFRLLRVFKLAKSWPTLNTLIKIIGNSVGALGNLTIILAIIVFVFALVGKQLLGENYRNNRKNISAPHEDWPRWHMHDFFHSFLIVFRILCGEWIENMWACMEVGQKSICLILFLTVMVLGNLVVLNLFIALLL
human NaV 1.8, sequence (Q9Y5Y9 1148-1722 limits assumed): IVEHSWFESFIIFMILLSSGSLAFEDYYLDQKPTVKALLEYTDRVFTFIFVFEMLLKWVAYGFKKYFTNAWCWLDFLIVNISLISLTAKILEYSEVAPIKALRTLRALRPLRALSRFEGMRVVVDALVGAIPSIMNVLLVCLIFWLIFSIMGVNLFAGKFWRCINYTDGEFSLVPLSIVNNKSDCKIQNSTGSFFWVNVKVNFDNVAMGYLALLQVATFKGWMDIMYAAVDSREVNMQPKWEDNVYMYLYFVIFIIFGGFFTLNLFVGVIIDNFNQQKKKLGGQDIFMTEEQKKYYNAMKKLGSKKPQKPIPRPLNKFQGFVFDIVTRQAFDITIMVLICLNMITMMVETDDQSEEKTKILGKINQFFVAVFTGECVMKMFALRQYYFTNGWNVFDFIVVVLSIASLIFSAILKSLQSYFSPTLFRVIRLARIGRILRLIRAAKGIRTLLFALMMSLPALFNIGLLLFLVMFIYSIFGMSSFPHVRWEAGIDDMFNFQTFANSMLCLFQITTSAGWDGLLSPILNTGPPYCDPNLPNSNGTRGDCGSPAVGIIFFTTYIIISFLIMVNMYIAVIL

Work on `COc1ncc(NC(=O)[C@@H]2O[C@@](C)(C(F)(F)F)[C@@H](C)[C@H]2c2ccc(F)c(F)c2OCCO)cn1` [Compound 550, (2R,3S,4S,5R)-3-(3,4-difluoro-2-(2-hydroxyethoxy)phenyl)-N-(2-methoxypyrimidin-5-yl)-4,5-dimethyl-5-(trifluoromethyl)tetrahydrofuran-2-carboxamide] yielded a pIC50 [1] of 6.00 to 7.00.

Compound `C[C@@H]1[C@H](c2ccc(F)c(F)c2OC(F)F)[C@@H](C(=O)Nc2ccnc(CC(C)(C)O)c2)O[C@]1(C)C(F)(F)F` (single isomer, unassigned) [Compound 463] has a pIC50 [1] of at most 6.00.

Compound `COc1c([C@H]2[C@H](C(=O)Nc3ccnc(N4C(=O)CN5CCC4CC5)c3)O[C@@](C)(C(F)(F)F)[C@H]2C)ccc(F)c1F` [Compound 468, (2R,3S,4S,5R)-3-(3,4-difluoro-2-methoxyphenyl)-4,5-dimethyl-N-(2-(3-oxo-1,4-diazabicyclo[3.2.2]nonan-4-yl)pyridin-4-yl)-5-(trifluoromethyl)tetrahydrofuran-2-carboxamide] has a pIC50 [1] of 7.00 to 8.00.

`C[C@H]1[C@@H](c2ccc(F)c(F)c2OC(F)F)[C@H](C(=O)Nc2ccnc(N3CCNCC3=O)c2)O[C@@]1(C)C(F)(F)F` [Compound 514, (2R,3S,4S,5R)-3-(2-(difluoromethoxy)-3,4-difluorophenyl)-4,5-dimethyl-N-(2-(2-oxopiperazin-1-yl)pyridin-4-yl)-5-(trifluoromethyl)tetrahydrofuran-2-carboxamide] showed a pIC50 [1] of 7.00 to 8.00.

In the case of `COc1c([C@H]2C[C@@](C)(C(F)(F)F)O[C@@H]2C(=O)Nc2ccnc([C@@H](O)[C@H](C)O)c2)ccc(F)c1F` (stereo in doubt) [Compound 698, rel-(2S,3R,5S)-3-(3,4-difluoro-2-methoxyphenyl)-N-(2-((1R,2S)-1,2-dihydroxypropyl)pyridin-4-yl)-5-methyl-5-(trifluoromethyl)tetrahydrofuran-2-carboxamide], the pIC50 [2] was at most 6.00.

In the case of `COc1c([C@@H]2[C@@H](C(=O)Nc3ccc(C(=O)O)nc3)O[C@](C)(C(F)(F)F)[C@@H]2C)ccc(F)c1C(F)F` (single isomer, unassigned) [Compound 177], the pIC50 [1] was at most 6.00.

`COc1c([C@@H]2[C@@H](C(=O)Nc3ccnc(C(=O)O)c3)O[C@](C)(C(F)(F)F)[C@@H]2C)ccc(F)c1C(F)F` (single isomer, unassigned) [Compound 175] was tested, and the pIC50 [1] was 6.00 to 7.00.

With `COc1c([C@H]2[C@H](C(=O)Nc3ccnc(C(O)CO)c3)O[C@@](C)(C(F)(F)F)[C@H]2C)ccc(F)c1C` (single isomer, unassigned) [Compound 135] the pIC50 [1] was over 8.00.

`COc1c([C@H]2[C@H](C(=O)Nc3cnc4c(c3)CCC4O)O[C@@](C)(C(F)(F)F)[C@H]2C)ccc(F)c1F` (single isomer, unassigned) [Compound 17] gave a pIC50 [1] of 7.00 to 8.00.

`COc1c(C2CC(C)(C(F)(F)F)OC2C(=O)Nc2ccnc(C(O)C(C)O)c2)ccc(F)c1F` (single isomer, unassigned) [Compound 697] was tested, and the pIC50 [2] was at most 6.00.

`C[C@H]1[C@@H](c2ccc(F)c(F)c2OCCO)[C@H](C(=O)Nc2ccc3nncn3c2)O[C@@]1(C)C(F)(F)F` [Compound 548] showed a pIC50 [1] of 7.00 to 8.00.

For `COc1c(C2C(C(=O)Nc3ccn4nnnc4c3)OC(C)(C(F)(F)F)C2C)ccc(F)c1C` (single isomer, unassigned) [Compound 134, 3-(4-fluoro-2-methoxy-3-methyl-phenyl)-4,5-dimethyl-N-(tetrazolo[1,5-a]pyridin-7-yl)-5-(trifluoromethyl)tetrahydrofuran-2-carboxamide], the pIC50 [1] was over 8.00.

For `Cc1nocc1NC(=O)[C@@H]1O[C@@](C)(C(F)(F)F)[C@@H](C)[C@H]1c1ccc(F)c(F)c1OCCN1CCOCC1` [Compound 586, (2R,3S,4S,5R)-3-(3,4-difluoro-2-(2-morpholinoethoxy)phenyl)-4,5-dimethyl-N-(3-methylisoxazol-4-yl)-5-(trifluoromethyl)tetrahydrofuran-2-carboxamide], the pIC50 [1] was 7.00 to 8.00.

Compound `COC[C@@H](O)Cc1cc(NC(=O)[C@@H]2O[C@@](C)(C(F)(F)F)[C@@H](C)[C@H]2c2ccc(F)c(F)c2OCCN2CCOCC2)ccn1` [Compound 596, (2R,3S,4S,5R)-3-(3,4-difluoro-2-(2-morpholinoethoxy)phenyl)-N-(2-((S)-2-hydroxy-3-methoxypropyl)pyridin-4-yl)-4,5-dimethyl-5-(trifluoromethyl)tetrahydrofuran-2-carboxamide] has a pIC50 [1] of 7.00 to 8.00.

`COc1c([C@H]2[C@H](C(=O)Nc3cnc4n3CCCC4)O[C@@](C)(C(F)(F)F)[C@H]2C)ccc(F)c1F` [Compound 317, (2R,3S,4S,5R)-3-(3,4-difluoro-2-methoxyphenyl)-4,5-dimethyl-N-(5,6,7,8-tetrahydroimidazo[1,2-a]pyridin-3-yl)-5-(trifluoromethyl)-tetrahydrofuran-2-carboxamide] was tested, and the pIC50 [1] was 6.00 to 7.00.

`COc1c([C@H]2[C@H](C(=O)Nc3ccc(N4CCN(C)CC4=O)nc3)O[C@@](C)(C(F)(F)F)[C@H]2C)ccc(F)c1F` [Compound 391, (2R,3S,4S,5R)-3-(3,4-difluoro-2-methoxyphenyl)-4,5-dimethyl-N-(6-(4-methyl-2-oxopiperazin-1-yl)pyridin-3-yl)-5-(trifluoromethyl)-tetrahydrofuran-2-carboxamide] gave a pIC50 [1] of 6.00 to 7.00.

`COc1ccc(NC(=O)[C@@H]2O[C@@](C)(C(F)(F)F)[C@@H](C)[C@H]2c2ccc(F)c(C(F)F)c2OC)cn1` (single isomer, unassigned) [Compound 167] gave a pIC50 [1] of 7.00 to 8.00.

Compound `COc1c([C@H]2[C@H](C(=O)Nc3cnc(CCO)nc3)O[C@@](C)(C(F)(F)F)[C@H]2C)ccc(F)c1F` [Compound 237, (2R,3S,4S,5R)-3-(3,4-difluoro-2-methoxyphenyl)-N-(2-(2-hydroxyethyl)pyrimidin-5-yl)-4,5-dimethyl-5-(trifluoromethyl)tetrahydrofuran-2-carboxamide] has a pIC50 [1] of 7.00 to 8.00.

Compound `COc1c([C@H]2[C@H](C(=O)NCC(=O)N3CCOCC3)O[C@@](C)(C(F)(F)F)[C@H]2C)ccc(F)c1F` [Compound 304, (2R,3S,4S,5R)-3-(3,4-difluoro-2-methoxyphenyl)-4,5-dimethyl-N-(2-morpholino-2-oxoethyl)-5-(trifluoromethyl)tetrahydrofuran-2-carboxamide] has a pIC50 [1] of at most 6.00.

`COc1c([C@H]2[C@H](C(=O)Nc3ccnc(CN4CCC[C@H]4CO)c3)O[C@@](C)(C(F)(F)F)[C@H]2C)ccc(F)c1F` [Compound 386, (2R,3S,4S,5R)-3-(3,4-difluoro-2-methoxyphenyl)-N-(2-(((S)-2-(hydroxymethyl)pyrrolidin-1-yl)methyl)pyridin-4-yl)-4,5-dimethyl-5-(trifluoromethyl)tetrahydrofuran-2-carboxamide] was tested, and the pIC50 [1] was over 8.00.

For `COc1c([C@H]2[C@H](C(=O)Nc3ccc4nc(CO)cn4c3)O[C@@](C)(C(F)(F)F)[C@H]2C)ccc(F)c1F` [Compound 264, (2R,3S,4S,5R)-3-(3,4-difluoro-2-methoxyphenyl)-N-(2-(hydroxymethyl)imidazo[1,2-a]pyridin-6-yl)-4,5-dimethyl-5-(trifluoromethyl)tetrahydrofuran-2-carboxamide], the pIC50 [1] was 7.00 to 8.00.

Work on `COc1c(C2C(C(=O)Nc3ccnc(C(=O)O)c3)OC(C)(C(F)(F)F)C2C)ccc(F)c1C(F)F` (single isomer, unassigned) [Compound 174] yielded a pIC50 [1] of over 8.00.
